The values that follow come from patent US20120015907A1, “Furopyridine compounds and uses thereof” (NOVARTIS AG, priority 2010, published 2012).

For orientation: IC50 means the concentration at which inhibition is half-maximal.

The assay addresses T1, HCV polymerase (Hepatitis C virus genotype 1b, UniProt Q9WMX2).
T1 construct: (His)6 (C)
In words: biochemical. To be noted: polymerase assay of Biological Example 1; read-out: NS5B polymerase IC50.
As to `CNC(=O)c1c(-c2ccc(F)cc2)oc2nc(N(C)S(C)(=O)=O)c(CCCCC(=O)N3CCC[C@H]3C(=O)OC)cc12` [Example 4.6, (S)-methyl 1-(5-(2-(4-fluorophenyl)-3-(methylcarbamoyl)-6-(N-methylmethylsulfonamido)furo[2,3-b]pyridin-5-yl)pentanoyl)pyrrolidine-2-carboxylate], the IC50 is 113 nM. Take `CNC(=O)c1c(-c2ccc(C)cc2)oc2nc(N(C)S(C)(=O)=O)c(CCCO)cc12` [Example 9.2, 5-(3-hydroxypropyl)-N-methyl-6-(N-methylmethylsulfonamido)-2-p-tolylfuro[2,3-b]pyridine-3-carboxamide]: the IC50 is 82 nM.

Consider `CNC(=O)c1c(-c2ccc(F)cc2)oc2nc(N(CCN3CCOCC3)S(C)(=O)=O)c(I)cc12` [Example 18.4, 2-(4-fluorophenyl)-5-iodo-N-methyl-6-(N-(2-morpholinoethyl)methylsulfonamido)furo[2,3-b]pyridine-3-carboxamide], for which the IC50 was 260 nM.

Regarding `CCc1cc2c(C(=O)NC)c(-c3ccc(F)cc3)oc2nc1N(CCc1ccc(OC)c(OC)c1)S(C)(=O)=O` [Example 22.2, 6-(N-(3,4-dimethoxyphenethyl)methylsulfonamido)-5-ethyl-2-(4-fluorophenyl)-N-methylfuro[2,3-b]pyridine-3-carboxamide], the IC50 was 281 nM. As for `CCc1cc2c(C(=O)NC)c(-c3ccc(F)cc3)oc2nc1N(CCCOc1ccccc1C#N)S(C)(=O)=O` [Example 21.5, 6-(N-(3-(2-cyanophenoxy)propyl)methylsulfonamido)-5-ethyl-2-(4-fluorophenyl)-N-methylfuro[2,3-b]pyridine-3-carboxamide], the figure is 191 nM; as for `C=C(c1cc2c(C(=O)NC)c(-c3ccc(F)cc3)oc2nc1N(C)S(C)(=O)=O)C(F)(F)F` [Example 2.5, 2-(4-fluorophenyl)-N-methyl-6-(N-methylmethylsulfonamido)-5-(3,3,3-trifluoroprop-1-en-2-yl)furo[2,3-b]pyridine-3-carboxamide], 662 nM. As to `CCc1cc2c(C(=O)NC)c(-c3ccc(F)cc3)oc2nc1N(CCOc1cccc(C(=O)OC)c1)S(C)(=O)=O` [Example 22.6, methyl 3-(2-(N-(5-ethyl-2-(4-fluorophenyl)-3-(methylcarbamoyl)furo[2,3-b]pyridin-6-yl)methylsulfonamido)ethoxy)benzoate], the IC50 turned out to be 251 nM.

Regarding `CCOC(=O)C1(CCCN(c2nc3oc(-c4ccc(C)cc4)c(C(=O)NC)c3cc2C2CC2)S(C)(=O)=O)CCNCC1` [Example 29.999993, ethyl 4-(3-(N-(5-cyclopropyl-3-(methylcarbamoyl)-2-p-tolylfuro[2,3-b]pyridin-6-yl)methylsulfonamido)propyl) piperidine-4-carboxylate], the IC50 was 22 nM. Turning to `CCc1cc2c(C(=O)NC)c(-c3ccc(F)cc3)oc2nc1N(CCCNS(=O)(=O)c1ccccc1)S(C)(=O)=O` [23.6], the IC50 was 93 nM. For `CNC(=O)c1c(-c2ccc(C)cc2)oc2nc(N(CCCC3CCCC3C(=O)O)S(C)(=O)=O)c(C3CC3)cc12` (centres unmarked) [Example 29.4, 2-(3-(N-(5-cyclopropyl-3-(methylcarbamoyl)-2-p-tolylfuro[2,3-b]pyridin-6-yl)methylsulfonamido)propyl) cyclopentanecarboxylic acid], the IC50 turned out to be 3 nM.

Take `CCc1cc2c(C(=O)NC)c(-c3ccc(F)cc3)oc2nc1N(C[C@@H](C)Cc1ccc(OC)nc1)S(C)(=O)=O` [Example 21.6, (S)-5-ethyl-2-(4-fluorophenyl)-6-(N-(3-(6-methoxypyridin-3-yl)-2-methylpropyl)methylsulfonamido)-N-methylfuro[2,3-b]pyridine-3-carboxamide]: the half-maximal inhibitory concentration (IC50) came out at 948 nM.

With `CCc1cc2c(C(=O)NC)c(-c3ccc(F)cc3)oc2nc1N(CCOc1ccccc1C#N)S(C)(=O)=O` [Example 21.95, 6-(N-(2-(2-cyanophenoxy)ethyl)methylsulfonamido)-5-ethyl-2-(4-fluorophenyl)-N-methylfuro[2,3-b]pyridine-3-carboxamide], the concentration for half-maximal inhibition (IC50) is 119 nM. With `CNC(=O)c1c(-c2ccc(C)cc2)oc2nc(N(CCCCc3nn[nH]n3)S(C)(=O)=O)c(C3CC3)cc12` [Example 29.93, 6-(N-(4-(2H-tetrazol-5-yl)butyl)methylsulfonamido)-5-cyclopropyl-N-methyl-2-p-tolylfuro[2,3-b]pyridine-3-carboxamide], the IC50 amounted to 3 nM. For `CCc1cc2c(C(=O)NC)c(-c3ccc(F)cc3)oc2nc1N(CCCN(C)C(=O)c1ccccc1)S(C)(=O)=O` [Example 23.998, 5-ethyl-2-(4-fluorophenyl)-N-methyl-6-(N-(3-(N-methylbenzamido)propyl)methylsulfonamido)furo[2,3-b]pyridine-3-carboxamide], the half-maximal inhibitory concentration (IC50) amounted to 184 nM.

For `CNC(=O)c1c(-c2ccc(C)cc2)oc2nc(N(CCCN3CCCC3=O)S(C)(=O)=O)c(C3CC3)cc12` [Example 23.999997, 5-cyclopropyl-N-methyl-6-(N-(3-(2-oxopyrrolidin-1-yl)propyl)methylsulfonamido)-2-p-tolylfuro[2,3-b] pyridine-3-carboxamide], the half-maximal inhibitory concentration (IC50) stood at 5 nM. As for `CNC(=O)c1c(-c2ccc(F)cc2)oc2nc(N(CCCOCCOC)S(C)(=O)=O)c(I)cc12` [Example 18.992, 2-(4-fluorophenyl)-5-iodo-6-(N-(3-(2-methoxyethoxy)propyl)methylsulfonamido)-N-methylfuro[2,3-b]pyridine-3-carboxamide], the figure is 237 nM; as for `CCc1ccc(-c2oc3nc(N(CCCC(C)(COC)C(=O)O)S(C)(=O)=O)c(C4CC4)cc3c2C(=O)NC)cc1` (centres unmarked) [Example 43, 5-(N-(5-Cyclopropyl-2-(4-ethylphenyl)-3-(methylcarbamoyl)furo[2,3-b]pyridin-6-yl)methylsulfonamido)-2-(methoxymethyl)-2-methylpentanoic acid], 2 nM; as for `CCc1cc2c(C(=O)NC)c(-c3ccc(F)cc3)oc2nc1N(CCOCCN1C(=O)NC(C)(C)C1=O)S(C)(=O)=O` [Example 22.4, 6-(N-(2-(2-(4,4-dimethyl-2,5-dioxoimidazolidin-1-yl)ethoxy)ethyl)methylsulfonamido)-5-ethyl-2-(4-fluorophenyl)-N-methylfuro[2,3-b]pyridine-3-carboxamide], 33 nM. As for `CNC(=O)c1c(-c2ccc(F)cc2)oc2nc(N(Cc3cccc(C(N)=O)c3)S(C)(=O)=O)c(I)cc12` [Example 18.8, 6-(N-(3-carbamoylbenzyl)methylsulfonamido)-2-(4-fluorophenyl)-5-iodo-N-methylfuro[2,3-b]pyridine-3-carboxamide], the figure is 51 nM; as for `CCc1cc2c(C(=O)NC)c(-c3ccc(F)cc3)oc2nc1N(CCCS(=O)(=O)N1CCCC1)S(C)(=O)=O` [Example 22.91, 5-ethyl-2-(4-fluorophenyl)-N-methyl-6-(N-(3-(pyrrolidin-1-ylsulfonyl)propyl)methylsulfonamido)furo[2,3-b]pyridine-3-carboxamide], 34 nM; as for `C#Cc1cc2c(C(=O)NC)c(-c3ccc(F)cc3)oc2nc1N(C)S(C)(=O)=O` [Example 7, 5-ethynyl-2-(4-fluorophenyl)-N-methyl-6-(N-methylmethylsulfonamido)furo[2,3-b]pyridine-3-carboxamide], 60 nM.

For `CCc1cc2c(C(=O)NC)c(-c3ccc(F)cc3)oc2nc1N(CCCC(C)(C)C(=O)O)S(C)(=O)=O` [Example 21.4, 5-(N-(5-ethyl-2-(4-fluorophenyl)-3-(methylcarbamoyl)furo[2,3-b]pyridin-6-yl)methylsulfonamido)-2,2-dimethylpentanoic acid], the IC50 is 7 nM. As for `CNC(=O)c1c(-c2ccc(C)cc2)oc2nc(N(CCC[C@@H](C)C(=O)N[C@@H](C(=O)OC)c3ccccc3)S(C)(=O)=O)c(C3CC3)cc12` [Example 29.99998, (R)-methyl 2-((R)-5-(N-(5-cyclopropyl-3-(methylcarbamoyl)-2-p-tolylfuro[2,3-b]pyridin-6-yl)methylsulfonamido)-2-methylpentanamido)-2-phenylacetate], the figure is 2 nM. As for `CCc1cc2c(C(=O)NC)c(-c3ccc(F)cc3)oc2nc1N(CCCN(C)C(C)=O)S(C)(=O)=O` [Example 23.997, 5-ethyl-2-(4-fluorophenyl)-N-methyl-6-(N-(3-(N-methylacetamido)propyl)methylsulfonamido)furo[2,3-b]pyridine-3-carboxamide], the figure is 58 nM. As for `CCc1cc2c(C(=O)NC)c(-c3ccc(F)cc3)oc2nc1N(CCN(C)S(=O)(=O)c1ccccc1)S(C)(=O)=O` [Example 22.995, 5-ethyl-2-(4-fluorophenyl)-N-methyl-6-(N-(2-(N-methylphenylsulfonamido)ethyl)methylsulfonamido)furo[2,3-b]pyridine-3-carboxamide], the figure is 24 nM. In the case of `CCc1cc2c(C(=O)NC)c(-c3ccc(F)cc3)oc2nc1N(CCCCS(=O)(=O)c1ccccc1)S(C)(=O)=O` [Example 23.8, 5-ethyl-2-(4-fluorophenyl)-N-methyl-6-(N-(4-(phenylsulfonyl)butyl)methylsulfonamido)furo[2,3-b]pyridine-3-carboxamide], the IC50 stood at 58 nM. As for `CCNC(=O)c1c(-c2ccc(F)cc2)oc2nc(N(C)S(C)(=O)=O)c(C3CC3)cc12` [Example 2.7, 5-cyclopropyl-N-ethyl-2-(4-fluorophenyl)-6-(N-methylmethylsulfonamido)furo[2,3-b]pyridine-3-carboxamide], the figure is 44 nM; as for `CNC(=O)c1c(-c2ccc(F)cc2)oc2nc(N(C)S(C)(=O)=O)c(C(C)C)cc12` [Example 6.2, 2-(4-fluorophenyl)-5-isopropyl-N-methyl-6-(N-methylmethylsulfonamido)furo[2,3-b]pyridine-3-carboxamide], 58 nM; as for `CCc1ccc(-c2oc3nc(N(CCCCCC(=O)O)S(C)(=O)=O)c(C4CC4)cc3c2C(=O)NC)cc1` [Example 29.9, 6-(N-(5-cyclopropyl-2-(4-ethylphenyl)-3-(methylcarbamoyl)furo[2,3-b]pyridin-6-yl)methylsulfonamido) hexanoic acid], 2 nM.
